Source: patent US20240409585A1, “MACROCYCLIC IMMUNOMODULATORS” (priority 2021, published 2024)
Bridge positions count the residues as written; N and C are the ends. Square brackets hold non-standard residues; d marks the D form. Peptide text beside a SMILES is read from it. Bip = N[C@@H](Cc1ccc(-c2ccccc2)cc1)C(=O)O; Phe(3-OMe) = COc1cccc(C[C@H](N)C(=O)O)c1; Phe(3-Me) = Cc1cccc(C[C@H](N)C(=O)O)c1; Cit = NC(=O)NCCC[C@H](N)C(=O)O; NMeA = CN[C@@H](C)C(=O)O; Dab = NCC[C@H](N)C(=O)O; Dap = NC[C@H](N)C(=O)O

The compounds below were run against T1, PE-labeled human PD-L1-Ig binding to Jurkat cell line over-expressing human PD-1 (Jurkat-PD-1) (Homo sapiens, UniProt Q15116) (assay: Jurkat-PD-1 Cell Binding High-Content Screening Assay (CBA): Method 1). Settings: Jurkat-hPD-1 cells, PE-labeled PD-L1-Ig 20 nM final; read-out: Jurkat HPDL1 PD1 IC50 (uM) (Method 1).
T1 construct: expressed in transfected cells; host or cells: Jurkat
T1 sequence (Q15116 25-288): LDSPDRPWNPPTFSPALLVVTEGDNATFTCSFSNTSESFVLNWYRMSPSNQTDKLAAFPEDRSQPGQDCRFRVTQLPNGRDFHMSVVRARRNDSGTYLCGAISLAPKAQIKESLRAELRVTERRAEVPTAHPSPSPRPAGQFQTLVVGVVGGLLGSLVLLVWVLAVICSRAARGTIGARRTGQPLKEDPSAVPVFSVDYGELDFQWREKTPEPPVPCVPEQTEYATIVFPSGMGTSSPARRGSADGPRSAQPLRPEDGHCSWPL

IC50 [µM]	Structure (SMILES)
0.01	COc1cccc(C[C@@H]2NC(=O)[C@H](CC(=O)O)NC(=O)[C@H](Cc3cccc(C)c3)NC(=O)[C@H](CN)NC(=O)CSC[C@@H](C(=O)N[C@@H](C)C(N)=O)NC(=O)[C@@H](CO)NC(=O)[C@H](C(C)C)NC(=O)[C@H](CC(C)C)NC(=O)[C@H](CC(N)=O)NC(=O)[C@@H](C)NC(=O)[C@H](C)N(C)C(=O)[C@H](C(C)C)NC(=O)[C@H](Cc3ccc(-c4ccccc4)cc3)NC(=O)[C@@H](CC(C)C)NC2=O)c1 [Compound 1464] ({CH2CO}-[Dap][Phe(3-Me)]D[Phe(3-OMe)][dL][Bip]V[NMeA][dA]NLV[dS]CA-NH2; thioether N-14)
0.02	CC(C)C[C@@H]1NC(=O)[C@H](Cc2c[nH]c3ccccc23)NC(=O)[C@H](CC(=O)O)NC(=O)[C@H](Cc2ccc(O)cc2)NC(=O)[C@H](Cc2ccccc2)NC(=O)CSC[C@@H](C(=O)NCC(N)=O)NC(=O)[C@H]([C@@H](C)O)NC(=O)[C@H](C(C)C)NC(=O)[C@H](CC(C)C)NC(=O)[C@H](CC(N)=O)NC(=O)[C@@H](CC(C)C)NC(=O)[C@H](C)N(C)C(=O)[C@H](C(C)C)NC(=O)[C@H](Cc2ccc(-c3ccccc3)cc2)NC1=O [Compound 1466] ({CH2CO}-FYDWL[Bip]V[NMeA][dL]NLVTCG-NH2; thioether N-14)
0.02	CC(C)C[C@@H]1NC(=O)[C@H](Cc2c[nH]c3ccccc23)NC(=O)[C@H](CC(=O)O)NC(=O)[C@H](Cc2ccc(O)cc2)NC(=O)[C@H](Cc2ccccc2)NC(=O)CSC[C@@H](C(=O)N[C@@H](C)C(N)=O)NC(=O)[C@H]([C@@H](C)O)NC(=O)[C@H](C(C)C)NC(=O)[C@H](CC(C)C)NC(=O)[C@H](CC(N)=O)NC(=O)[C@@H](CC(C)C)NC(=O)[C@H](C)N(C)C(=O)[C@H](C(C)C)NC(=O)[C@H](Cc2ccc(-c3ccccc3)cc2)NC1=O [Compound 1467] ({CH2CO}-FYDWL[Bip]V[NMeA][dL]NLVTCA-NH2; thioether N-14)
0.01	CC(C)C[C@@H]1NC(=O)[C@H](Cc2c[nH]c3ccccc23)NC(=O)[C@H](CC(=O)O)NC(=O)[C@H](Cc2ccc(O)cc2)NC(=O)[C@H](Cc2ccccc2)NC(=O)CSC[C@@H](C(=O)NCC(N)=O)NC(=O)[C@H]([C@@H](C)O)NC(=O)[C@H](C(C)C)NC(=O)[C@H](CC(C)C)NC(=O)[C@H](CCN)NC(=O)[C@@H](CC(C)C)NC(=O)[C@H](C)N(C)C(=O)[C@H](C(C)C)NC(=O)[C@H](Cc2ccc(-c3ccccc3)cc2)NC1=O [Compound 1469] ({CH2CO}-FYDWL[Bip]V[NMeA][dL][Dab]LVTCG-NH2; thioether N-14)
0.01	CC(C)C[C@@H]1NC(=O)[C@H](Cc2c[nH]c3ccccc23)NC(=O)[C@H](CC(=O)O)NC(=O)[C@H](Cc2ccc(O)cc2)NC(=O)[C@H](Cc2ccccc2)NC(=O)CSC[C@@H](C(=O)NCC(N)=O)NC(=O)[C@H](CO)NC(=O)[C@H](C(C)C)NC(=O)[C@H](CC(C)C)NC(=O)[C@H](CCN)NC(=O)[C@@H](CC(C)C)NC(=O)[C@H](C)N(C)C(=O)[C@H](C(C)C)NC(=O)[C@H](Cc2ccc(-c3ccccc3)cc2)NC1=O [Compound 1472] ({CH2CO}-FYDWL[Bip]V[NMeA][dL][Dab]LVSCG-NH2; thioether N-14)
0.04	CC(C)C[C@@H]1NC(=O)[C@H](CCCCN)NC(=O)[C@@H](CC(C)C)NC(=O)[C@H](C)N(C)C(=O)[C@H](CCCNC(N)=O)NC(=O)[C@H](Cc2ccc(-c3ccccc3)cc2)NC(=O)[C@H](C(C)C)NC(=O)[C@H](Cc2c[nH]c3ccccc23)NC(=O)[C@H](CC(=O)O)NC(=O)[C@H](Cc2ccc(O)cc2)NC(=O)[C@H](CC(N)=O)NC(=O)CSC[C@@H](C(=O)N[C@@H](C)C(N)=O)NC(=O)[C@H](CO)NC(=O)[C@H](C(C)C)NC1=O [Compound 1473] ({CH2CO}-NYDWV[Bip][Cit][NMeA][dL]KLVSCA-NH2; thioether N-14)
0.08	CC(C)C[C@@H]1NC(=O)[C@H](CCCCN)NC(=O)[C@@H](CC(C)C)NC(=O)[C@H](C)N(C)C(=O)[C@H](CCCNC(N)=O)NC(=O)[C@H](Cc2ccc(-c3ccccc3)cc2)NC(=O)[C@H](C(C)C)NC(=O)[C@H](Cc2c[nH]c3ccccc23)NC(=O)[C@H](CC(=O)O)NC(=O)[C@H](Cc2ccc(O)cc2)NC(=O)[C@H](CC(N)=O)NC(=O)CSC[C@@H](C(=O)NCC(N)=O)NC(=O)[C@H](CO)NC(=O)[C@H](C(C)C)NC1=O [Compound 1474] ({CH2CO}-NYDWV[Bip][Cit][NMeA][dL]KLVSCG-NH2; thioether N-14)
0.05	CC(C)C[C@@H]1NC(=O)[C@H](CCCCN)NC(=O)[C@@H](CC(C)C)NC(=O)[C@H](C)N(C)C(=O)[C@H](CCCNC(N)=O)NC(=O)[C@H](Cc2ccc(-c3ccccc3)cc2)NC(=O)[C@H](C(C)C)NC(=O)[C@H](Cc2c[nH]c3ccccc23)NC(=O)[C@H](CC(=O)O)NC(=O)[C@H](Cc2ccc(O)cc2)NC(=O)[C@H](CC(N)=O)NC(=O)CSC[C@@H](C(=O)NCC(N)=O)NC(=O)[C@H]([C@@H](C)O)NC(=O)[C@H](C(C)C)NC1=O [Compound 1475] ({CH2CO}-NYDWV[Bip][Cit][NMeA][dL]KLVTCG-NH2; thioether N-14)
0.06	CC(C)C[C@@H]1NC(=O)[C@H](Cc2c[nH]c3ccccc23)NC(=O)[C@H](CC(=O)O)NC(=O)[C@H](Cc2ccc(O)cc2)NC(=O)[C@H](Cc2ccccc2)NC(=O)CSC[C@@H](C(=O)NCC(N)=O)NC(=O)[C@H]([C@@H](C)O)NC(=O)[C@H](C(C)C)NC(=O)[C@H](CC(C)C)NC(=O)[C@H](CC(N)=O)NC(=O)[C@@H](C)NC(=O)[C@H](C)N(C)C(=O)[C@H](C(C)C)NC(=O)[C@H](Cc2ccc(-c3ccccc3)cc2)NC1=O [Compound 1476] ({CH2CO}-FYDWL[Bip]V[NMeA][dA]NLVTCG-NH2; thioether N-14)
0.02	CC(C)C[C@@H]1NC(=O)[C@H](Cc2c[nH]c3ccccc23)NC(=O)[C@H](CC(=O)O)NC(=O)[C@H](Cc2ccc(O)cc2)NC(=O)[C@H](Cc2ccccc2)NC(=O)CSC[C@@H](C(=O)NCC(N)=O)NC(=O)[C@H]([C@@H](C)O)NC(=O)[C@H](C(C)C)NC(=O)[C@H](CC(C)C)NC(=O)[C@H](CCN)NC(=O)[C@@H](C)NC(=O)[C@H](C)N(C)C(=O)[C@H](C(C)C)NC(=O)[C@H](Cc2ccc(-c3ccccc3)cc2)NC1=O [Compound 1477] ({CH2CO}-FYDWL[Bip]V[NMeA][dA][Dab]LVTCG-NH2; thioether N-14)
0.02	CC(C)C[C@@H]1NC(=O)[C@H](Cc2c[nH]c3ccccc23)NC(=O)[C@H](CC(=O)O)NC(=O)[C@H](Cc2ccc(O)cc2)NC(=O)[C@H](Cc2ccccc2)NC(=O)CSC[C@@H](C(=O)N[C@@H](C)C(N)=O)NC(=O)[C@H]([C@@H](C)O)NC(=O)[C@H](C(C)C)NC(=O)[C@H](CC(C)C)NC(=O)[C@H](CCN)NC(=O)[C@@H](C)NC(=O)[C@H](C)N(C)C(=O)[C@H](C(C)C)NC(=O)[C@H](Cc2ccc(-c3ccccc3)cc2)NC1=O [Compound 1478] ({CH2CO}-FYDWL[Bip]V[NMeA][dA][Dab]LVTCA-NH2; thioether N-14)
0.02	CC(C)C[C@@H]1NC(=O)[C@H](Cc2c[nH]c3ccccc23)NC(=O)[C@H](CC(=O)O)NC(=O)[C@H](Cc2ccc(O)cc2)NC(=O)[C@H](Cc2ccccc2)NC(=O)CSC[C@@H](C(=O)NCC(N)=O)NC(=O)[C@H](CO)NC(=O)[C@H](C(C)C)NC(=O)[C@H](CC(C)C)NC(=O)[C@H](CCN)NC(=O)[C@@H](C)NC(=O)[C@H](C)N(C)C(=O)[C@H](C(C)C)NC(=O)[C@H](Cc2ccc(-c3ccccc3)cc2)NC1=O [Compound 1479] ({CH2CO}-FYDWL[Bip]V[NMeA][dA][Dab]LVSCG-NH2; thioether N-14)
0.04	CC[C@H](C)[C@@H]1NC(=O)[C@H](Cc2ccc(-c3ccccc3)cc2)NC(=O)[C@H](C(C)C)NC(=O)[C@H](Cc2c[nH]c3ccccc23)NC(=O)[C@H](CC(=O)O)NC(=O)[C@H](Cc2ccc(O)cc2)NC(=O)[C@H](CC(N)=O)NC(=O)CSC[C@@H](C(=O)N[C@@H](C)C(N)=O)NC(=O)[C@H](CO)NC(=O)[C@H](C(C)C)NC(=O)[C@H](CC(C)C)NC(=O)[C@H](CCCCN)NC(=O)[C@@H](CC(C)C)NC(=O)[C@H](C)N(C)C1=O [Compound 1480] ({CH2CO}-NYDWV[Bip]I[NMeA][dL]KLVSCA-NH2; thioether N-14)
0.12	CC(C)C[C@@H]1NC(=O)[C@H](CCCCN)NC(=O)[C@@H](CC(C)C)NC(=O)[C@H](C)N(C)C(=O)[C@H](Cc2cnc[nH]2)NC(=O)[C@H](Cc2ccc(-c3ccccc3)cc2)NC(=O)[C@H](C(C)C)NC(=O)[C@H](Cc2c[nH]c3ccccc23)NC(=O)[C@H](CC(=O)O)NC(=O)[C@H](Cc2ccc(O)cc2)NC(=O)[C@H](CC(N)=O)NC(=O)CSC[C@@H](C(=O)N[C@@H](C)C(N)=O)NC(=O)[C@H]([C@@H](C)O)NC(=O)[C@H](C(C)C)NC1=O [Compound 1481] ({CH2CO}-NYDWV[Bip]H[NMeA][dL]KLVTCA-NH2; thioether N-14)
0.11	CC(C)C[C@@H]1NC(=O)[C@H](CCCCN)NC(=O)[C@@H](CC(C)C)NC(=O)[C@H](C)N(C)C(=O)[C@H](Cc2cnc[nH]2)NC(=O)[C@H](Cc2ccc(-c3ccccc3)cc2)NC(=O)[C@H](C(C)C)NC(=O)[C@H](Cc2c[nH]c3ccccc23)NC(=O)[C@H](CC(=O)O)NC(=O)[C@H](Cc2ccc(O)cc2)NC(=O)[C@H](CC(N)=O)NC(=O)CSC[C@@H](C(=O)N[C@@H](C)C(N)=O)NC(=O)[C@H](CO)NC(=O)[C@H](C(C)C)NC1=O [Compound 1482] ({CH2CO}-NYDWV[Bip]H[NMeA][dL]KLVSCA-NH2; thioether N-14)
0.06	CC(C)C[C@@H]1NC(=O)[C@H](CCCCN)NC(=O)[C@@H](CC(C)C)NC(=O)[C@H](C)N(C)C(=O)[C@H](Cc2cnc[nH]2)NC(=O)[C@H](Cc2ccc(-c3ccccc3)cc2)NC(=O)[C@H](C(C)C)NC(=O)[C@H](Cc2c[nH]c3ccccc23)NC(=O)[C@H](CC(=O)O)NC(=O)[C@H](Cc2ccc(O)cc2)NC(=O)[C@H](CC(N)=O)NC(=O)CSC[C@@H](C(=O)NCC(N)=O)NC(=O)[C@H](CO)NC(=O)[C@H](C(C)C)NC1=O [Compound 1483] ({CH2CO}-NYDWV[Bip]H[NMeA][dL]KLVSCG-NH2; thioether N-14)
